# Experiment: antitumor properties (studies mentioned, no method described)
# Conditions: qualitative statement compared with girolline; no test system, dose or model printed
row,Structure (SMILES),propriétés antitumorales
1,"NC[C@@H](Cl)[C@H](O)c1c[nH]c(N)n1 (racemic) [racémique thréo, amino-3 (amino-2 1H-imidazolyl-4)-1 chloro-2 propanol-1-(1RS,2RS)]",conserve les propriétés antitumorales remarquables de la girolline
2,NC[C@H](Cl)[C@H](O)c1c[nH]c(N)n1 (racemic) [racémique érythro],totalement inactifs

# Reference: EP0397567A1, “Antitumor substance, process for its preparation and pharmaceutical compositions containing it” (RHONE-POULENC SANTE, priority 1989, dated 1990)
